Drawing on PubChem BioAssay (NCI), this text covers GI50 and TGI for nine compounds.

Assay in all cases: NCI tumour cell line growth inhibition, 48 h
Assay [1] relates to MDA-MB-435.
Assay [2] concerns MDA-MB-231 breast.
Assay [3] concerns ACHN renal.
For assay [4], the system named is HL-60(TB) leukemia.
The subject of assay [5] is SK-OV-3 ovarian.
The test system of assay [6] is A498 renal.
Assay [7] has as its system SK-MEL-28 melanoma.
Assay [8] relates to MCF7 breast.
Assay [9] deals with KM12 colon.
Assay [10] concerns M14 melanoma.

Where “and” joins values, the source holds several entries; their conditions need not be identical. Identical values can stand only once.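 Results reflect a 48-hour exposure of cells in 96-well plates to compound at five concentrations. GI50: concentration for 50% inhibition of growth. TGI denotes the concentration required for complete inhibition of growth.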

Regarding `CCN(CC)CCOc1ccc(/C(=C(\C)Cc2ccc(OC)cc2)c2ccc(O)cc2)cc1`, the GI50 in [1] was 1.68 µM; in [2], 1.71 µM; in assay [3], 1.66 µM; in assay [4], 1.41 µM; in assay [5], 2.48 µM; in [6] it was 1.38 µM. Moreover, the figures for the GI50 in assay [7], in [8] and in assay [9] were 1.79 µM, 0.145 µM and 1.8 µM, respectively. In addition, the TGI in assay [1] came out at 3.15 µM; in [2], 3.26 µM; in assay [3], 3.1 µM; in assay [4], 3.14 µM; in assay [5], 7.38 µM; in assay [6] it was 4.81 µM. Besides, the values for the TGI in assay [7], in [8] and in [9] were 3.33 µM, 2.3 µM and 3.76 µM, respectively.
As for `C=CCc1cc(O)ccc1O`, the GI50 was 19.9 µM in [1]; 14.1 µM in [2]; 15.1 µM in assay [3]; 2.53 µM in assay [4]; 94.8 µM in assay [5]; > 100 µM in assay [6]. In addition, the figures for the GI50 in assay [7], in assay [8] and in assay [9] were > 100 µM, 44.3 µM and 13.2 µM, respectively. The TGI in assay [1] is 57.1 µM; in [2], > 100 µM; in [3] it was 28.3 µM; in assay [4] it was 7.04 µM; in assay [5], > 100 µM; in assay [6], > 100 µM. For the same compound, the TGI in [7] is > 100 µM; in [8] it was > 100 µM; in assay [9], 65.1 µM.
Consider `CCNCCS(=O)(=O)NC[C@@]1(c2ccccc2)SC(NC(=O)C(C)(C)C)=NN1C(=O)C(C)(C)C`, for which the GI50 in [1] was < 0.01 µM; in assay [2] it was < 0.01 µM; in assay [3], 4.9 µM; in [5], < 0.01 µM; in [6], < 0.01 µM; in [10], < 0.01 µM. The GI50 in assay [7] is 11.3 µM; in [8], < 0.01 µM; in [9] it was < 0.01 µM. Besides, the TGI in assay [1] was < 0.01 µM; in assay [2] it was 28.1 µM; in assay [3], > 100 µM; in assay [5] it was > 100 µM; in assay [6], 53.4 µM; in [10], 0.0209 µM. Moreover, the TGI in assay [7], in [8] and in [9] was > 100 µM throughout.
Consider `O=C1NC(c2cccc3ccccc23)Nc2ccc(Cl)cc21` (stereo unspecified), for which the TGI in [1] is 0.000257 µM; in assay [2] it was 30.3 µM; in assay [3], 10.7 µM; in assay [4] it was 0.000441 µM; in [7] it was 20.6 µM; in assay [8], > 100 µM. The same compound showed a TGI in [9] of 0.803 µM. In addition, the GI50 in assay [8] was 0.0129 µM.
Consider `Oc1ccc(/C=N/NC(=S)Nc2ccccc2)nc1`, for which the GI50 was 2.19 µM in assay [1]; 0.729 µM in assay [2]; 0.552 µM in assay [3]; 1.55 µM in [4]; 0.748 µM in [5]; 3 µM in [6]. In addition, the GI50 was 3.14 µM in assay [7], 2.73 µM in assay [8] and 1.91 µM in [9]. In addition, the TGI in [1] was > 100 µM; in assay [2] it was > 100 µM; in assay [3] it was > 100 µM; in assay [4] it was 6.77 µM; in assay [5], 32.6 µM; in assay [6] it was > 100 µM. The TGI in assay [7], in assay [8] and in assay [9] was > 100 µM throughout.
`CN1C(=O)[C@@H](CC2CCCC2)N(C2CCCC2)c2nc(Nc3cc(Cl)c(O)c(Cl)c3)ncc21`: the GI50 in assay [1] was 27.8 µM; in assay [3], 18.7 µM; in assay [4], 10.3 µM; in [5] it was 17.1 µM; in assay [6] it was 35.4 µM; in assay [10], 22.2 µM. Further, the GI50 was 22.6 µM in assay [7], 15.2 µM in assay [8] and 37.5 µM in assay [9]. Also, the TGI in [1] is > 100 µM; in assay [3] it was > 100 µM; in assay [4], 58.1 µM; in assay [5] it was 75.9 µM; in assay [6], > 100 µM; in [10], > 100 µM. The TGI in assay [7], in assay [8] and in [9] was > 100 µM in each case.
`CCCCCCCCCCCCCCCC(=O)OCC1OC(OCCCC)[C@H](O[C@@H]2OC(C)C(OC(=O)CCC)C(O)C2O)C(O)C1O` (stereo partly specified): the GI50 in assay [1] is 13.3 µM; in assay [2] it was 14.4 µM; in assay [3], 18.1 µM; in assay [4] it was 14.5 µM; in [5], 5.12 µM; in assay [7], 16.5 µM. The GI50 is 30.1 µM in assay [8] and 17.1 µM in assay [9]. Further, the TGI in assay [1] amounted to 27.3 µM; in assay [2] it was 30.2 µM; in [3], 35.2 µM; in assay [4] it was 32 µM; in [5] it was 16.1 µM; in assay [7], 32.1 µM. Moreover, the TGI in [8] is > 100 µM; in assay [9], 31.9 µM.
For the compound `O=C(CCl)N1CCN(c2ccccn2)CC1`, the TGI in assay [3] was 61.2 µM; in [4], 49.6 µM; in assay [5], > 100 µM; in assay [6], 31.4 µM; in [10], 35.5 µM; in assay [7], 41.6 µM. Besides, the TGI in assay [8] was determined as 53 µM; in [9], 94 µM.
For the compound `CC[C@@]1(O)C(=O)OCc2c1cc1n(c2=O)Cc2cc3cc(O)ccc3nc2-1`, the TGI in assay [1] is 1.09 µM; in assay [2], > 100 µM; in assay [3] it was 0.457 µM; in assay [4], 0.135 µM; in assay [5], 0.7 µM and 1.85 µM; in assay [6] it was 0.703 µM and 0.453 µM. Besides, the TGI in assay [10] is 1.39 µM; in assay [7], 10 µM and > 38.9 µM; in assay [9], 2.34 µM and 5.38 µM. In addition, the GI50 was 0.0187 µM in [4]; < 0.0124 µM in assay [5]; 0.195 µM and 0.0455 µM in assay [6]; 0.166 µM and 0.264 µM in [7]; 0.127 µM and 0.142 µM in [9].
